The results in this text go back to ChEMBL document CHEMBL5233261, “Recent accomplishments on the synthetic/biological facets of pharmacologically active 1H-1,2,3-triazoles” (Eur J Med Chem, 2021).

Experiment [1] concerns Mycobacterium tuberculosis. Put plainly: Antibacterial activity against Mycobacterium tuberculosis H37Rv ATCC 27294 strain assessed as bacterial growth inhibition by MABA Assay. Type of experiment: functional. (In general: Alamar Blue is a resazurin reagent that responds to reducing activity.)
The subject of experiment [2] is HeLa. Put plainly: Anticancer activity against human HeLa cells assessed as cell growth inhibition incubated for 72 hrs by MTT assay. Type of experiment: functional, cell-based. Background: Tetrazolium assays rely on reduction of a dye to a coloured formazan, in cell work by metabolically active cells.
Experiment [3] deals with MCF7. Put plainly: Anticancer activity against human MCF7 cells assessed as cell growth inhibition incubated for 72 hrs by MTT assay. It is filed as functional, cell-based. As to conditions: MCF7, 72 h.
Experiment [4] concerns MCF7. Put plainly: Anticancer activity against human MCF7 cells assessed as cell growth inhibition by MTT assay. It is filed as functional, cell-based.
Experiment [5] concerns MDA-MB-231. In words: Anticancer activity against human MDA-MB-231 cells assessed as cell growth inhibition incubated for 48 hrs by MTT assay. It is filed as functional, cell-based. As to conditions: MDA-MB-231, 48 h.
The next experiment relates to Escherichia coli. In words: Antibacterial activity against Escherichia coli assessed as bacterial growth inhibition incubated for 24 hrs by agar well diffusion assay. Type of experiment: functional. On the technique in general: A growth-free zone around the sample is the usual read-out of agar diffusion tests.
The test system of a further experiment is Staphylococcus aureus. Put plainly: Antibacterial activity against Staphylococcus aureus assessed as bacterial growth inhibition incubated for 24 hrs by agar well diffusion assay. Type of experiment: functional.
For another experiment, the system named is Bacillus subtilis. Put plainly: Antibacterial activity against Bacillus subtilis assessed as bacterial growth inhibition incubated for 24 hrs by agar well diffusion assay. It is filed as functional.
Experiment [6] has as its system Mycobacterium tuberculosis. In words: Antibacterial activity against Mycobacterium tuberculosis H37Rv strain assessed as bacterial growth inhibition incubated for 7 days by Resazurin Microtiter Assay. It is filed as functional. Particulars: 168 h, time 7 day.
In experiment [7] the test system is Mycobacterium tuberculosis. In words: Antibacterial activity against Mycobacterium tuberculosis H37Rv MTCC 200 strain assessed as bacterial growth inhibition. It is filed as functional.
For experiment [8], the system named is Mycobacterium tuberculosis. Put plainly: Antibacterial activity against Mycobacterium tuberculosis H37Ra ATCC 25177 assessed as bacterial growth inhibition by XTT Reduction Menadione Assay. It is filed as functional.
For experiment [9], the system named is MCF7. In words: Anticancer activity against human MCF7 cells assessed as cell growth inhibition incubated for 24 hrs by MTT assay. Type of experiment: functional, cell-based. As to conditions: MCF7, 24 h.
For a further experiment, the system named is Pseudomonas aeruginosa. Put plainly: Antibacterial activity against Pseudomonas aeruginosa assessed as bacterial growth inhibition. Type of experiment: functional. Particulars: Pseudomonas aeruginosa; read-out: MIC.
Experiment [10] relates to Plasmodium falciparum. Put plainly: Antimalarial activity against Plasmodium falciparum 3D7 strain by MSF assay. Type of experiment: functional, organism-based.
Another experiment concerns HEK293. In words: Anticancer activity against human HEK293 cells assessed as cell growth inhibition by MTT assay. Type of experiment: functional.
Experiment [11] concerns MDA-MB-231. In words: Anticancer activity against human MDA-MB-231 cells assessed as cell growth inhibition by MTT assay. Type of experiment: functional, cell-based.
Experiment [12] relates to Plasmodium falciparum. In words: Antimalarial activity against Plasmodium falciparum 3D7 strain incubated for 40 hrs by Giemsa staining based microscopic analysis. It is filed as functional, organism-based. As to conditions: 3D7, 40 h.
In experiment [13] the test system is Plasmodium falciparum. Put plainly: Antimalarial activity against Plasmodium falciparum RKL-2 strain incubated for 40 hrs by Giemsa staining based microscopic analysis. Type of experiment: functional, organism-based. Particulars: RKL-2, 40 h.
Another experiment deals with Plasmodium berghei. In words: In vivo antimalarial activity against Plasmodium berghei infected in swiss albino mouse at 50 microg/kg, ip administered as single dose for 4 to 6 weeks relative to control. As to conditions: dose 50 µg/kg, time 4-6 weeks. Type of experiment: functional.
Experiment [14] relates to HeLa. In words: Anticancer activity against human HeLa cells assessed as cell growth inhibition incubated for 48 hrs by MTT assay. It is filed as functional, cell-based.
For experiment [15], the system named is Mycobacterium tuberculosis. Put plainly: Antibacterial activity against Mycobacterium tuberculosis H37Rv strain assessed as bacterial growth inhibition by MABA Assay. Type of experiment: functional, organism-based.

≈ marks a conversion by molar mass, not a printed value. Where “and” joins values, the source holds several entries; their conditions need not be identical. Identical values can stand only once.

As to `COc1ccc(Cn2cc(CNC(=O)c3cc4cc(OC)ccc4nc3Cl)nn2)cc1`, in experiment [1], the MIC amounted to 1.6 µg/mL (≈ 3.65 µM). Same read-out and setting: next, `COc1ccc2nc(Cl)c(C(=O)NCc3cn(Cc4ccccc4)nn3)cc2c1`: 1.6 µg/mL (≈ 3.92 µM). The IC50 is the concentration that gives 50% inhibition. Take `Cc1ccc(-n2cc(CSc3nnc(C(C)c4ccc(CC(C)C)cc4)o3)nn2)c(C)c1` (stereo not drawn): the IC50 was 27.5 µg/mL (≈ 61.4 µM) in the experiment with HeLa [2] and 31 µg/mL (≈ 69.3 µM) in the experiment on MCF7 [3]. As for `COc1cc([C@H]2c3cc4c(cc3[C@H](OCc3cn([C@@H]5O[C@H](COC(C)=O)[C@H](OC(C)=O)[C@H](OC(C)=O)[C@H]5OC(C)=O)nn3)[C@@H]3COC(=O)[C@@H]23)OCO4)cc(OC)c1OC`, the IC50 with MCF7 [4] stood at 1.25 µM. For `CCC(C)n1cc(CN2C(=O)C3(C(C#N)=C(N)Oc4cc5c(cc43)[nH]c3ccccc35)c3ccccc32)nn1` (stereo not drawn), in the experiment on MDA-MB-231 [5], the IC50 worked out at 2.13 µM.

Regarding `Cc1cc(=O)oc2cc(OCc3cn(CCCCCCn4cc(COc5cc6oc(=O)cc(C)c6cc5Cl)nn4)nn3)c(Cl)cc12`, the “inhibition zone (IZ)” value in the experiment on Escherichia coli came out at 14 mm; in the experiment on Staphylococcus aureus it was 16 mm; in the experiment with Bacillus subtilis, 19 mm. In addition, the MIC in experiment [6] is 1.56 µg/mL (≈ 2.34 µM). As to `O=C(Cn1cc(-c2ccccc2)nn1)Nc1ccccc1`, the MIC in experiment [7] worked out at 0.0898 umol/cm3. Consider `CC(=O)Nc1ccc(N2C=C(C(c3c[nH]c4ccc(Br)cc34)c3c[nH]c4ccc(Br)cc34)NN2)cc1`, for which the MIC in [8] was 3 µg/mL and 1 µg/mL. On to `O=C1C(=O)N(CCCn2cc(COCCOc3ccc(/C(=C(/CCCl)c4ccccc4)c4ccccc4)cc3)nn2)c2c(Br)cc(Br)cc21`, for which the IC50 in the experiment with MCF7 [9] is 16.5 µM. Take `NC(=O)N/N=C/c1ccc(OCc2cn(-c3ccc(F)cc3)nn2)cc1`: the MIC with Pseudomonas aeruginosa was 35.3 µM (≈ 12.5 µg/mL). On to `O=C1C(=O)N(CCCCn2cc(COCCOc3ccc(/C(=C(/CCCl)c4ccccc4)c4ccccc4)cc3)nn2)c2c(Br)cc(Br)cc21`, for which the IC50 in the experiment with MCF7 [9] is 11 µM. Take `COc1ccc2nc(Cl)c(C(=O)NCc3cn(Cc4ccc(C#N)cc4)nn3)cc2c1`: the MIC in experiment [1] was found to be 1.6 µg/mL (≈ 3.7 µM). In the experiment on Plasmodium falciparum [10], `O=C(CCl)NCCNc1ccnc2cc(Cl)ccc12` registered an IC50 of 0.0387 µM. Consider `COc1ccc(C(=O)Cn2cc(CNC(=O)c3cc4cc(OC)ccc4nc3Cl)nn2)cc1`, for which the MIC in experiment [1] turned out to be 1.6 µg/mL (≈ 3.43 µM). Take `O=C1C(=O)N(Cc2cn(CC/C(=C(\c3ccccc3)c3ccc(OCCO)cc3)c3ccccc3)nn2)c2c(Br)cc(Br)cc21`: the half-inhibitory concentration (IC50) was 31.6 µM with MCF7 [4], more than 100 µM with HEK293 and 19.2 µM in the experiment with MDA-MB-231 [11].

Regarding `C[C@H]1[C@H](N=[N+]=[N-])O[C@@H]2O[C@]3(C)CC[C@H]4[C@H](C)CC[C@@H]1[C@@]24OO3`, the 50% inhibitory concentration (IC50) was 0.066 µg/mL (≈ 0.213 µM) in the experiment on Plasmodium falciparum [12] and 0.865 µg/mL (≈ 2.8 µM) in the experiment on Plasmodium falciparum [13]. Moreover, the Activity in the experiment on Plasmodium berghei was 59%.

Consider `Cc1ccc(Cn2cc(CN3C(=O)C4(C(C#N)=C(N)Oc5cc6c(cc54)[nH]c4ccccc46)c4cc(F)ccc43)nn2)cc1` (stereo not drawn), for which the concentration for half-maximal inhibition (IC50) in the experiment with HeLa [14] is 3.35 µM. For `O=c1c(Cn2cc(CCCCCCCCCCCCCCCO)nn2)coc2ccccc12`, the IC50 in experiment [15] came out at 1.56 µg/mL (≈ 3.44 µM). With `C#CCCO[C@@H]1O[C@@H]2O[C@]3(C)CC[C@H]4[C@H](C)CC[C@@H]([C@H]1C)[C@@]24OO3`, the IC50 in the experiment on Plasmodium falciparum [12] was 0.215 µg/mL (≈ 0.639 µM); in the experiment on Plasmodium falciparum [13], 8 µg/mL (≈ 23.8 µM).
